{
  "source": "patent US20260191191A1",
  "about": "“METHOD FOR INACTIVATING ENVELOPED VIRUSES” (Merck Patent GmbH, priority 2022, published 2026)",
  "key": {"[1]": {"test_system": "Xenotropic murine leukemia virus (XMuLV)", "format": "cell-based"}, "Pseudorabies virus (PRV)": {"test_system": "Pseudorabies virus (PRV)", "format": "cell-based", "details": "CHO clarified harvest, 15° C., within 5 min"}, "[2]": {"test_system": "Bovine viral diarrheal virus (BVDV)", "format": "cell-based"}, "[3]": {"experiment": "Critical micelle concentration (CMC) determination by static surface tension"}},
  "note": "Entries after “also recorded” stand apart in the source; their conditions may differ. Where two headings read alike, the source gives them in different places.",
  "data": [
    {"substance": "C11-C15 secondary alcohol ethoxylate", "values": [
      {"measurement": "SAE inactivation efficacy higher than Triton X-100 by", "setting": "[1]", "result": "~ 1.0 log"},
      {"measurement": "XMuLV inactivation efficacy compared with Triton X-100", "setting": "[1]", "result": "slightly higher efficacy than Triton™ X-100; also recorded: comparable inactivation with Triton™ X-100; also recorded: lower than that achieved with 1.0% Triton™ X-100, until a longer incubation time has elapsed; also recorded: comparable to that achieved with Triton™ X-100; also recorded: the same virus inactivation efficacy as Triton™ X-100"},
      {"measurement": "XMuLV inactivation efficiency compared with Triton X-100", "setting": "[1]", "result": "slightly higher than that achieved with Triton™ X-100 detergent"},
      {"measurement": "time in which most XMuLV inactivation occurred", "setting": "[1]", "result": "≤ 5", "unit": "min"},
      {"measurement": "PRV inactivation LRV", "setting": "Pseudorabies virus (PRV); 0.5% detergent", "result": "~ 6.5"},
      {"measurement": "PRV inactivation LRV", "setting": "Pseudorabies virus (PRV); 1.0% detergent", "result": "≥ 5.0"},
      {"measurement": "BVDV inactivation LRV", "setting": "[2]", "result": "≥ 4.0"},
      {"measurement": "hemolysis compared with Triton X-100", "setting": "Fresh human whole blood", "result": "comparable to Triton™ X-100"},
      {"measurement": "critical micelle concentration (CMC)", "setting": "[3]", "result": 49, "unit": "mg/L"}
    ]}
  ]
}
